The values that follow come from ChEMBL document CHEMBL5104145, “Synthesis of antiplasmodial 2-aminothieno[3,2-d]pyrimidin-4(3H)-one analogues using the scaffold hopping strategy” (Eur J Med Chem, 2022).

≈ marks a conversion by molar mass, not a printed value. A value given as a limit tells only on which side of the number the result lay.

Data set [1] in a line: Permeability of compound at 100 uM at pH 7.4 incubated for 4 hrs by PAMPA-GIT assay. As to conditions: read-out: permeability. The data set is classed as ADME. A general note: PAMPA measures passive passage across an artificial lipid membrane.
Data set [2] in a line: Thermodynamic solubility of compound at pH 7.4 incubated for 24 hrs by shake-flask method. The data set is classed as physicochemical. The conditions noted are these: buffer, read-out: Therm_solubility.
Data set [3] deals with Plasmodium falciparum. The data set can be described thus: Antiplasmodial activity against Plasmodium falciparum K1 assessed as reduction in parasite growth. Format: functional, organism-based.
Data set [4] in a line: Selectivity index, ratio of CC50 for cytotoxicity against human HepG2 cells to EC50 for antiplasmodial activity against chloroquine,pyrimethamine and proguanil resistant blood stage Plasmodium falciparum K1. Format: toxicity, cell-based. The conditions noted are these: for selectivity ratio: HepG2 cells, read-out: Ratio CC50/EC50.
Data set [5] has as its system Plasmodium falciparum. The data set can be described thus: Antiplasmodial activity against chloroquine,pyrimethamine and proguanil resistant blood stage Plasmodium falciparum K1 assessed as reduction in parasite growth incubated for 72 hrs by SYBR Green I fluorescence-based method. Format: functional, organism-based.
The nature of data set [6]: (§1) Cytotoxicity against human HepG2 cells assessed as reduction in cell viability incubated for 72 hrs by MTT assay. Format: toxicity, cell-based. The conditions noted are these: HepG2 cells.
Data set [7] is described as follows: Solubility of compound in culture media. The data set is classed as physicochemical.
The next data set concerns HepG2. The description is as §1. The data set is classed as toxicity, cell-based. As to conditions: hepg2, 72 h, 72 h.
Data set [8] in a line: Permeability of compound at 100 uM at pH 6 incubated for 4 hrs by PAMPA-GIT assay. The data set is classed as ADME. The conditions noted are these: read-out: permeability.
A short description of data set [9]: Permeability of compound at 100 uM at pH 5 incubated for 4 hrs by PAMPA-GIT assay. Format: ADME. As to conditions: read-out: permeability.
The mark [10] stands for this setting: Plasmodium falciparum, K1, 72 h.

In the case of `Cc1ccc(-c2cc3nc(NC(C)(C)C)[nH]c(=O)c3s2)cc1.Cl`, in data set [1], the Papp at 4 h, 100 µM worked out at 0.46 ×10⁻⁶ cm/s. In addition, the solubility thermodynamic at 24 h in data set [2] was found to be 7.92 µM.
With `Cc1ccc(-c2ccc3nc(NC(C)(C)C)[nH]c(=O)c3c2)cc1`, in the data set on Plasmodium falciparum [3], the EC50 – broadly, the concentration that produces a half-maximal response – is greater than 5 µM.
In the case of `Cc1ccc(-c2cc3nc(NC(C)(C)C)[nH]c(=O)c3o2)cc1`, the “Ratio CC50/EC50” value in data set [4] was 13.6. The EC50 in the data set on Plasmodium falciparum [5] is 800 nM. Also, the CC50 (in general, the concentration giving 50% cytotoxicity) at 72 h in data set [6] turned out to be 10.9 µM.
On to `Cc1ccc(-c2nc3nc(NC(C)(C)C)[nH]c(=O)c3s2)cc1`, for which the selectivity ratio in data set [4] is greater than 1.1. Also, the EC50 in the data set on Plasmodium falciparum [5] (setting [10]) is 4600 nM. Further, in data set [6], the CC50 at 72 h was greater than 5 µM.
As for `CC(C)(C)Nc1nc2nc(-c3ccc(F)cc3)sc2c(=O)[nH]1`, in data set [7], the solubility entry was “Insoluble”.
As to `Cc1ccc(-c2cc3c(=O)[nH]c(NC(C)(C)C)nc3s2)cc1`, the selectivity ratio in [4] was determined as 0.6. In addition, the concentration for a half-maximal effect (EC50) with Plasmodium falciparum [5] (setting [10]) was 32400 nM. In addition, the CC50 at 72 h in [6] was found to be 20.5 µM.
On to `Cc1ccc(-c2cc3nc(NC(C)C)[nH]c(=O)c3[se]2)cc1`, for which the “Ratio CC50/EC50” value in data set [4] was greater than 31.3. Also, the EC50 with Plasmodium falciparum [5] (setting [10]) is 800 nM. Further, in the data set with HepG2, the CC50 is greater than 25 µM.
Take `CC(C)(C)Nc1nc2nc(-c3ccc(Cl)cc3)sc2c(=O)[nH]1`: the solubility entry in data set [7] is reported as “Insoluble”.
For the compound `Cc1ccc(-c2cc3nc(NC(C)(C)C)[nH]c(=O)c3s2)cc1`, the Papp at 4 h, 100 µM is 1.86 ×10⁻⁶ cm/s in [8], 2.05 ×10⁻⁶ cm/s in [1] and 4.18 ×10⁻⁶ cm/s in data set [9]. Besides, the solubility thermodynamic at 24 h in data set [2] was determined as 1.56 µM (≈ 0.489 µg/mL).
Consider `CC(C)(C)Nc1nc2nc(-c3ccccc3)sc2c(=O)[nH]1`, for which the EC50 in the data set with Plasmodium falciparum [5] (setting [10]) is greater than 12500 nM. Besides, the CC50 at 72 h in [6] was greater than 25 µM.
For `Cc1ccc(-c2cc3nc(NC(C)C)[nH]c(=O)c3[se]2)cc1.Cl`, the “Ratio CC50/EC50” value in data set [4] is on record as greater than 13. Further, the EC50 with Plasmodium falciparum [5] came out at 770 nM. The CC50 in the data set with HepG2 was greater than 10 µM.
As for `Cc1ccc(-c2cc3nc(NC(C)(C)C)[nH]c(=O)c3[se]2)cc1`, the “Ratio CC50/EC50” value in data set [4] is greater than 6. In addition, the EC50 in the data set with Plasmodium falciparum [5] came to 1300 nM. For the same compound, the CC50 in the data set with HepG2 was greater than 7.8 µM.
For the compound `Cc1ccc(-c2cc3nc(NC(C)C)[nH]c(=O)c3o2)cc1`, the selectivity ratio in [4] came out at 227. The Papp at 4 h, 100 µM came to 64.3 ×10⁻⁶ cm/s in data set [8], 76.9 ×10⁻⁶ cm/s in data set [1] and 41.1 ×10⁻⁶ cm/s in data set [9]. The EC50 in the data set with Plasmodium falciparum [5] (setting [10]) was found to be 90 nM. Further, the CC50 at 72 h in data set [6] was determined as 20.4 µM. The solubility thermodynamic at 24 h in data set [2] was 11.5 µM (≈ 3.26 µg/mL).
Turning to `Cc1ccc(-c2cc3nc(NC(C)(C)C)[nH]c(=O)c3[se]2)cc1.Cl`, the “Ratio CC50/EC50” value in [4] is recorded as greater than 24. For the same compound, the EC50 in the data set with Plasmodium falciparum [5] came to 130 nM. In addition, the 50% cytotoxic concentration (CC50) with HepG2 was greater than 3.12 µM.
`CCOC(=O)c1[nH]c(-c2ccc(C)cc2)c2c(=O)[nH]c(NC(C)(C)C)nc12`: the selectivity ratio in data set [4] worked out at 0.4. Also, the EC50 in the data set with Plasmodium falciparum [5] (setting [10]) came out at 17100 nM. Also, in [6], the CC50 at 72 h was 7.4 µM.
The matching figures for `Cc1c(-c2ccc(Cl)cc2)sc2c(=O)[nH]c(NC(C)C)nc12`: greater than 5.7, 4400 nM and greater than 25 µM.
Consider `Cc1ccc(-c2cc3nc(NC(C)(C)C)[nH]c(=O)c3o2)cc1.Cl`, for which the “Ratio CC50/EC50” value in data set [4] was determined as 72.3. The EC50 in the data set with Plasmodium falciparum [5] is 300 nM. The CC50 in the data set on HepG2 was 21.7 µM.
For `Cc1ccc(-c2ccc3c(=O)[nH]c(NC(C)(C)C)nc3c2)cc1`, in the data set on Plasmodium falciparum [3], the EC50 is greater than 5 µM.
As to `CC(C)(C)Nc1nc2sc(-c3ccc(Cl)cc3)cc2c(=O)[nH]1`, the selectivity ratio in [4] was less than 0.4. Also, in the data set with Plasmodium falciparum [5] (setting [10]), the EC50 is greater than 50000 nM. For the same compound, the CC50 at 72 h in data set [6] stood at 21.4 µM.
With `CC(C)(C)Nc1nc2cc(-c3ccc(Cl)cc3)oc2c(=O)[nH]1`, the selectivity ratio in data set [4] was greater than 15.6. The EC50 in the data set on Plasmodium falciparum [5] (setting [10]) was found to be 400 nM. The CC50 at 72 h in data set [6] was greater than 6.25 µM. In data set [7], the solubility result is listed as “Insoluble”.
On to `CC(C)(C)Nc1nc2cc(-c3ccc(F)cc3)oc2c(=O)[nH]1`, for which the selectivity ratio in data set [4] is greater than 1.1. Also, the EC50 with Plasmodium falciparum [5] (setting [10]) was determined as 2900 nM. Also, in data set [6], the CC50 at 72 h is greater than 3.12 µM. Besides, the solubility entry in [7] is “Insoluble”.
With `Cc1c(-c2ccc(F)cc2)sc2c(=O)[nH]c(NC(C)C)nc12`, in data set [4], the selectivity ratio came to 4.6. Further, the EC50 in the data set on Plasmodium falciparum [5] (setting [10]) amounted to 4300 nM. Besides, the CC50 at 72 h in data set [6] is 19.7 µM.
For the compound `CC(C)(C)Nc1nc2sc(-c3ccc(F)cc3)cc2c(=O)[nH]1`, the EC50 in the data set on Plasmodium falciparum [5] (setting [10]) was greater than 12500 nM. For the same compound, the CC50 at 72 h in data set [6] was greater than 25 µM.
On to `CC(C)(C)Nc1nc2sc(-c3ccccc3)cc2c(=O)[nH]1`, for which, in data set [4], the selectivity ratio is greater than 0.4. Moreover, the EC50 in the data set with Plasmodium falciparum [5] (setting [10]) was 33800 nM. For the same compound, in [6], the CC50 at 72 h was greater than 12.5 µM.
